We go through six compounds from patent US20260355199A1, “COMPOSITIONS AND METHODS FOR TREATING OR PREVENTING NONALCOHOLIC STEATOHEPATITIS (NASH), ANOREXIA, DEPRESSION, ENDOMETRIOSIS, AND OTHER DISEASES OR DISORDERS” (priority 2022, published 2026).

In experiment [1] the test system is TET3 and CD163. As to the kind of experiment: TET3 expression and TET3/CD163 double-positive cells in human MDMs. Particulars: for TET3 expression: TGF-β1 10 ng/ml or MCP1 200 ng/ml; for number of TET3/CD163 double-positive cells: TGF-β1 10 ng/ml, 48 h. The format is cell-based. Here is the method:
To prepare CM-HSC and CM-Endo, LX-2 and human endometriosis cells were seeded in 24-well plates (2.5×10^5 cells/well) with their respective growth media and allowed to grow to ~50% confluency. Cells were then washed with PBS and incubated with fresh growth media (500 μl/well) for an additional 24 h. Cell supernatant (CM-HSC/CM-Endo) was collected and immediately used to treat MDMs after 1:1 dilution with their respective growth media. In the control group, only respective growth media were used.
After wash in cold PBS, adherent cells were fixed with 4% paraformaldehyde in PBS for 15 min and permeabilized with 0.4% TritonX-100 for 15 min. Cells were blocked in 5% donkey serum/PBS-T at RT for 30 min and quickly washed once with PBS-T before antibody incubation. Primary antibodies were diluted in 2% donkey serum/PBS-T. For CD163/TET3 double staining, cells were incubated with anti-TET3 (GeneTex, GTX121453, diluted at 1:400 for MDMs; Millipore Sigma, ABE290, diluted at 1:500 for mouse peritoneal macrophages) and anti-CD163 (Abcam, ab156769, diluted at 1:400 for MDMs; Santa Cruz Biotechnology, sc-58965, diluted at 1:200 for peritoneal macrophages) overnight at 4 °C. The next day, cells were washed 3 times with PBS-T and incubated in 0.4% Triton X-100/PBS with donkey anti-Rabbit IgG Fluor 594 (Invitrogen, A-21207, diluted at 1:500) and goat anti-Mouse lgG Fluor 488 (Invitrogen, A-11029, diluted at 1:500) for 1 h at RT. Cells were covered with antifade mounting medium with DAPI (Vector laboratories, H-2000), scoped using a Keyence BZ-X700 fluorescence microscope.
Total RNAs were extracted from cells using PureLink RNA Mini Kit. 0.5-1 μg total RNA was reverse transcribed to cDNA in a reaction volume of 20 μL using PrimeScript RT Reagent Kit. Real-time quantitative PCR was performed in a 15 μL reaction volume containing 0.5-1 μL of cDNA using SsoAdvanced Universal SYBR Green Supermix in a Bio-Rad iCycler. Gene expression levels were normalized against RPLP0.

Experiment [2] has as its system TET3 and CD163. In words: TET3 expression in mouse peritoneal macrophages. The format is cell-based. As to conditions: wild-type mouse peritoneal macrophages. Here is the method:
Peritoneal macrophages were collected from the peritoneal cavity of WT or Mye-Tet3 ko mice by injecting 10 mL of PBS followed by gentle abdominal massaging for 5 min. Cells were pelleted by centrifugation at 1500×g at 4 °C for 8 min. To remove red blood cells, cells were resuspended in […] (Biolegend, 420302, diluted to 1×) and allowed to stand for 5 min, followed by addition of PBS to stop the reaction and twice wash with PBS by centrifugation. Macrophages were enriched by plating cells in RPMI 1640 supplemented with 10% FBS and 1% Anti-Anti for 2 h at 37 °C in a 5% humidified CO2 tissue culture incubator. Non-adherent cells were then removed with three PBS washes.
After wash in cold PBS, adherent cells were fixed with 4% paraformaldehyde in PBS for 15 min and permeabilized with 0.4% TritonX-100 for 15 min. Cells were blocked in 5% donkey serum/PBS-T at RT for 30 min and quickly washed once with PBS-T before antibody incubation. […] Cells were covered with antifade mounting medium with DAPI (Vector laboratories, H-2000), scoped using a Keyence BZ-X700 fluorescence microscope.

For the next experiment, the system named is IL-1β. Particulars: phase III clinical trial; cited from earlier work.
Another experiment relates to IL-6 receptor. Particulars: rats; cited from earlier work.
The next experiment deals with estrogen receptor. Particulars: cited from earlier work.
For a further experiment, the system named is hM4Di. In words: Chemogenetic inhibition of AgRP neurons with C21. The class given is in vivo, mouse. Particulars: C21 0.5 mg/kg by osmotic pump, TET3 knockdown mice. An excerpt:
To determine the relevance of activated AgRP neurons from TET3 knockdown, the chemogenetic tool of designer receptors exclusively activated by designer drugs (DREADDs) was used. AAV-sgTet3 was co-injected with an AAV containing a Cre-dependent hM4Di-mCherry transgene (AAV-hM4Di) (Krashes, M. J. et al., 2011, Journal of Clinical Investigations, 121:1424-1428) bilaterally into the ARC of Cas9+ mice, followed by implantation of an osmotic pump to infuse DREADD agonist 21 (C21) (Thompson, K. J. et al., 2018, ACS Pharmacology & Translational Science, 1:61-72) or saline (FIG. 9K). AgRP neuron-specific expression of hM4Di was confirmed by immunofluorescence (FIG. 11).
Three days after bilateral ARC co-injection with AAV-sgTet3 and AAV-h4MDi, a mini-osmotic pump (model 1007D, Alzet) was implanted subcutaneously. The osmotic pump was filled with either sterile saline solution or DREADD agonist compound 21 (C21) dihydrochloride (0.5 mg/kg, HB6124-25 mg, Hello Bio). Food intake measurement and ITT were performed at day 5 and day 9 post-injection, respectively. For food intake assays, food pellets were weighed at 10:00 each day for 3 continuous days and an average of three-day food intake was calculated.

Entries after “also recorded” stand apart in the source; their conditions may differ.

On to “TGF-β1: purified TGF-β1 (PeproTech, 100-21)”, for which, in the experiment with TET3 and CD163 [1], the TET3 expression result is listed as “increased TET3 expression; also recorded: increased TET3 mRNA”; the “number of TET3/CD163 double-positive cells” value is “increased TET3 expression and the number of TET3/CD163 double-positive cells; also recorded: increase in the number of TET3/CD163 double-positive cells”. In addition, in the experiment with TET3 and CD163 [1] (listed as TGF-b1), the TET3 expression result is “increased TET3 expression both at mRNA and protein levels”; the “number of TET3/CD163 double-positive cells” value is “increase in the number of TET3/CD163 double-positive cells”. Besides, the “TET3 expression and TET3/CD163 double-positive cells” value in the experiment on TET3 and CD163 [2] was “increase TET3 expression and TET3/CD163 double-positive cells”.
As to MCP1: MCP1, also known as CCL2, the TET3 expression entry in the experiment with TET3 and CD163 [1] is “resulted in similar effects”. In addition, the “TET3 expression and TET3/CD163 double-positive cells” value with TET3 and CD163 [2] was “increase TET3 expression and TET3/CD163 double-positive cells”.
With “canakinumab: a human monoclonal antibody specific for IL-1β”, the “incident NSCLC and lung cancer mortality” value in the experiment on IL-1β was “substantially reduced incident NSCLC and lung cancer mortality in a dose-dependent manner”.
As to “tocilizumab: an anti-IL-6 receptor monoclonal antibody”, the endometriosis burden entry with IL-6 receptor was “significantly reduced endometriosis burden”.
As for `CCCCN(C)C(=O)CCCCCCCCCC[C@@H]1Cc2cc(O)ccc2[C@H]2CC[C@]3(C)[C@@H](O)CC[C@H]3[C@H]12` [ICI 164,384], the estrogen receptor degradation entry in the experiment with estrogen receptor is recorded as “induces its degradation without affecting its mRNA expression”.
On to `Cl.Cl.c1ccc2c(c1)N=C(N1CCNCC1)c1ccccc1N2` [C21], for which, in the experiment with hM4Di, the hyperphagia result is “suppressed hyperphagia” and the systemic insulin resistance entry is given as “reversed systemic insulin resistance”.
